Active and inactive are the calls of the source. The calls are words filed in the database; no cut-off is given here.

Data set [1] concerns the target T1, Tyrosinase (Agaricus bisporus) (UniProt O42713).
T1 sequence (whole entry): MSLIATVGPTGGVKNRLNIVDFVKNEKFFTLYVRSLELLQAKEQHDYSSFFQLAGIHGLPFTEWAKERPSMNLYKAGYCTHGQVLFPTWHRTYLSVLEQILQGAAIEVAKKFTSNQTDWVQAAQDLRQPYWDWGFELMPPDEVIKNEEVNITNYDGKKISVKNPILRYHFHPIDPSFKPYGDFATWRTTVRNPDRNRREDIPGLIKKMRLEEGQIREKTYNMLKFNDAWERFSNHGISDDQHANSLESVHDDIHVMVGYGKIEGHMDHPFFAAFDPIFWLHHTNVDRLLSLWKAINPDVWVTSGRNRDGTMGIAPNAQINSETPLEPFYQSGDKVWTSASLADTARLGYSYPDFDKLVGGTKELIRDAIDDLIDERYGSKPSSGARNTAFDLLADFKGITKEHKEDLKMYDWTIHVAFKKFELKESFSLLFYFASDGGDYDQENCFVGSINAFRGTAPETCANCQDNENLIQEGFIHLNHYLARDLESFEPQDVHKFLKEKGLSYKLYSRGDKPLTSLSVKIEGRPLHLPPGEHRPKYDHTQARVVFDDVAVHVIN
In words: Inhibition of diphenolase activity of mushroom tyrosinase using L-DOPA as substrate assessed as formation of the DOPA chrome at 100 uM preincubated for 10 mins followed by substrate addition measured for 1 min by spectrophotometric analysis relative to control.

Data set [2] addresses T1, Tyrosinase (Agaricus bisporus). In words: […] inhibition of diphenolase activity of mushroom tyrosinase assessed as L-DOPA oxidation at 10 to 50 uM.
A further data set addresses T2, Tyrosinase (Agaricus bisporus, UniProt O42713).
T2 sequence (O42713 whole entry): T1 sequence (whole entry)

For the next data set, the species on record is Mus musculus. The data set is described as follows: animal or person. As to conditions: Kunming, Ear, po, read-out: INH.
Data set [3] can be described thus: Drug degradation at 20 degC measured for 15 days. It counts as physicochemical. Particulars: read-out: Drug degradation.
In data set [4] the target is T1, Tyrosinase (Agaricus bisporus). The data set is described as follows: Reversible inhibition of diphenolase activity of mushroom tyrosinase assessed as L-DOPA oxidation at 10 to 50 uM.
Data set [5] shares this target. The data set is described as follows: Competitive inhibition of diphenolase activity of mushroom tyrosinase assessed as L-DOPA oxidation at 15 to 45 uM by Lineweaver-Burk plot analysis.

Description for Mus musculus: Antiinflammatory activity in Kunming mouse assessed as inhibition of croton oil-induced ear swelling at 0.105 mmol/kg, ig administered for 3 days followed by croton oil challenge at 1 hrs post last dose measured after 4 hrs relative to control

Broadly, the inhibition is the relative decrease from the control value, in per cent. Usually IC50 stands for the point on the concentration scale where inhibition reaches its midpoint. A lower IC50 goes with higher potency. For `NC(=S)N/N=C/c1cc(O)c2c(c1)C(=O)c1cccc(O)c1C2=O`, the inhibition in data set [1] came out at 78.6%. The inhibition result in data set [2] is “Active”. The IC50 at Tyrosinase stood at 24.5 µM.
For `O=Cc1cc(O)c2c(c1)C(=O)c1cccc(O)c1C2=O`, in the data set filed under Mus musculus, the inhibition in vivo at 105 µmol/kg stood at 50.6%. In data set [1], the inhibition was 49.4%. At Tyrosinase, this compound had a half-maximal inhibitory concentration (IC50) of 109 µM.
On to `O=C1c2cccc(O)c2C(=O)c2c(O)cc(/C=N/O)cc21`, for which the inhibition result in data set [1] is “inactive”.
Same read-out and setting: for `C=CCOc1cccc2c1C(=O)c1c(OCC=C)cc(/C=N/OCC)cc1C2=O` the value was “inactive”.
Regarding `C=CCOc1cccc2c1C(=O)c1c(OCC=C)cc(C=O)cc1C2=O`, in data set [1], the inhibition stood at 55.4%. This compound also displayed an IC50 at Tyrosinase of 92.4 µM.
Regarding `CCO/N=C/c1cc(O)c2c(c1)C(=O)c1cccc(O)c1C2=O`, the inhibition in data set [1] was 18.3%. This compound also gave an IC50 on Tyrosinase of more than 200 µM.
For the compound `CCO/N=C/c1cc(OC)c2c(c1)C(=O)c1cccc(OC)c1C2=O`, the inhibition result in data set [1] was “inactive”.
Take `CCOCOc1cccc2c1C(=O)c1c(OCOCC)cc(/C=N/NC(N)=S)cc1C2=O`: the inhibition in data set [1] turned out to be 65.3%. Also, the half-inhibitory concentration (IC50) against Tyrosinase stood at 58.1 µM.
For `CC(=O)Oc1cccc2c1C(=O)c1c(OC(C)=O)cc(C(=O)O)cc1C2=O` [DIACEREIN], the inhibition in vivo at 105 µmol/kg in the data set filed under Mus musculus was 39.1%.
For `O=C1c2cccc(O)c2C(=O)c2c(O)cc(/C=N/OCc3ccccc3)cc21`, the inhibition result in data set [1] was “inactive”.
Regarding `CO/N=C/c1cc(O)c2c(c1)C(=O)c1cccc(O)c1C2=O`, in data set [1], the inhibition was 12.9%. Further, at Tyrosinase, the IC50 was more than 200 µM.
For `CCOCOc1cccc2c1C(=O)c1c(OCOCC)cc(CO)cc1C2=O` the same measures were 7.45% and more than 200 µM.
In the case of `COc1cccc2c1C(=O)c1c(OC)cc(CO)cc1C2=O`, in the data set filed under Mus musculus, the inhibition in vivo at 105 µmol/kg turned out to be 35.2%. Besides, in data set [1], the inhibition was found to be 9.86%. The same compound yielded an IC50 against Tyrosinase of more than 200 µM.
Consider `CO/N=C/c1cc(OC)c2c(c1)C(=O)c1cccc(OC)c1C2=O`, for which the inhibition entry in data set [1] was “inactive”.
As for `C=CCOc1cccc2c1C(=O)c1c(OCC=C)cc(CO)cc1C2=O`, the inhibition in data set [1] turned out to be 58.6%. The compound further gave an IC50 at Tyrosinase of 91 µM.
For `COc1cccc2c1C(=O)c1c(OC)cc(/C=N/NC(N)=S)cc1C2=O` the same measures were 76.4% and 28 µM.
As for `C=CCOc1cccc2c1C(=O)c1c(OCC=C)cc(/C=N/OC)cc1C2=O`, the inhibition entry in data set [1] was “inactive”.
Same read-out and setting: then `CCOCOc1cccc2c1C(=O)c1c(OCOCC)cc(C=O)cc1C2=O`, with “inactive”.
In the case of `C=CCOc1cccc2c1C(=O)c1c(OCC=C)cc(/C=N/O)cc1C2=O`, in data set [1], the inhibition is 57%. Moreover, half-maximal inhibition at Tyrosinase (IC50) was put at 83.2 µM.
Take `COc1cccc2c1C(=O)c1c(OC)cc(C=O)cc1C2=O`: the inhibition in vivo at 105 µmol/kg in the data set listed under Mus musculus amounted to 42.6%. Besides, the inhibition entry in data set [1] was “inactive”.
Turning to `OC[C@H]1O[C@@H](Oc2ccc(O)cc2)[C@H](O)[C@@H](O)[C@@H]1O` [ARBUTIN], the degraded at 360 h in data set [3] stood at 10%.
For the compound `CCCCOc1cccc2c1C(=O)c1c(OCCCC)cc(CO)cc1C2=O`, the inhibition in data set [1] was 73.6%. For the same compound, the inhibition result in data set [4] and in data set [5] was “Active” in each case. The compound also came in with an IC50 at Tyrosinase of 32.8 µM.

For the origin of these results see ChEMBL document CHEMBL3632534, “Design and synthesis of aloe-emodin derivatives as potent anti-tyrosinase, antibacterial and anti-inflammatory agents” (Bioorg Med Chem Lett, 2015).
